Data taken from PubChem BioAssay AID292 (DTP/NCI, 2004).
Values joined by “and” are separate entries in the source; they are usually repeats but may differ in a detail not shown here. Equal values may be shown once. Toxic doses and inconclusive results are not listed. The calls were made as follows: active = survival T/C of 150% or more; inactive = T/C below 125% in these data.

Tested on: B6C3F1 mice, ip Sarcoma M5076, median survival T/C
Assay: NCI In Vivo Anticancer Drug Screen. Data for tumor model Sarcoma M5076 (intraperitoneal) in B6C3F1 mice
Conditions: endpoint: median survival time, higher = longer survival
Method in brief: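 Transplantable tumour in mice; compound-treated vs vehicle-treated groups. Read-out: survival. Value = treated/control ratio.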

[1] = dose: 12.5 mg/kg/injection, schedule: Q04DX004 (ip), vehicle: saline with Tween-80
[2] = dose: 25.0 mg/kg/injection, schedule: Q04DX004 (ip), vehicle: saline with Tween-80
[3] = dose: 50.0 mg/kg/injection, schedule: Q04DX004 (ip), vehicle: saline with Tween-80
[4] = dose: 25.0 mg/kg/injection, schedule: Q04DX004 (ip), vehicle: saline
[5] = dose: 50.0 mg/kg/injection, schedule: Q04DX004 (ip), vehicle: saline
[6] = dose: 6.25 mg/kg/injection, schedule: Q04DX004 (ip), vehicle: water
[7] = dose: 12.5 mg/kg/injection, schedule: Q04DX004 (ip), vehicle: water
[8] = dose: 50.0 mg/kg/injection, schedule: Q04DX004 (ip), vehicle: water
[9] = dose: 100.0 mg/kg/injection, schedule: Q04DX004 (ip), vehicle: water
[10] = dose: 50.0 mg/kg/injection, schedule: Q04DX004 (ip), vehicle: Klucel (hydroxypropylcellulose) (HPC)
[11] = dose: 100.0 mg/kg/injection, schedule: Q04DX004 (ip), vehicle: Klucel (hydroxypropylcellulose) (HPC)
[12] = dose: 12.5 mg/kg/injection, schedule: Q04DX004 (ip), vehicle: Klucel (hydroxypropylcellulose) (HPC)
[13] = dose: 25.0 mg/kg/injection, schedule: Q04DX004 (ip), vehicle: Klucel (hydroxypropylcellulose) (HPC)
[14] = dose: 75.0 mg/kg/injection, schedule: Q04DX004 (ip), vehicle: Klucel (hydroxypropylcellulose) (HPC)
[15] = dose: 150.0 mg/kg/injection, schedule: Q04DX004 (ip), vehicle: Klucel (hydroxypropylcellulose) (HPC)
[16] = dose: 25.0 mg/kg/injection, schedule: Q04DX004 (ip), vehicle: suspension in saline
[17] = dose: 100.0 mg/kg/injection, schedule: Q04DX004 (ip), vehicle: suspension in saline
[18] = dose: 75.0 mg/kg/injection, schedule: Q04DX004 (ip), vehicle: saline with Tween-80
[19] = dose: 150.0 mg/kg/injection, schedule: Q04DX004 (ip), vehicle: saline with Tween-80
[20] = dose: 600.0 mg/kg/injection, schedule: Q04DX004 (ip), vehicle: saline with Tween-80
[21] = dose: 37.5 mg/kg/injection, schedule: Q04DX004 (ip), vehicle: saline with Tween-80

Measured: T/C

O=CC(O)C(O)C(O)C(O)CO (centres undefined)
inactive: dose: 75.0 mg/kg/injection, schedule: Q04DX004 (ip), vehicle: saline 93 % of control | dose: 150.0 mg/kg/injection, schedule: Q04DX004 (ip), vehicle: saline 96 % of control | dose: 300.0 mg/kg/injection, schedule: Q04DX004 (ip), vehicle: saline 96 % of control | dose: 600.0 mg/kg/injection, schedule: Q04DX004 (ip), vehicle: saline 98 % of control | dose: 1200.0 mg/kg/injection, schedule: Q04DX004 (ip), vehicle: saline 93 % of control

Cc1ccc(N=NN(C)C)cc1NC(=O)NCC(=O)OC(C)(C)C
inactive: dose: 16.25 mg/kg/injection, schedule: Q04DX004 (ip), vehicle: saline with Tween-80 103 % of control | dose: 32.5 mg/kg/injection, schedule: Q04DX004 (ip), vehicle: saline with Tween-80 98 % of control | dose: 65.0 mg/kg/injection, schedule: Q04DX004 (ip), vehicle: saline with Tween-80 111 % of control | dose: 130.0 mg/kg/injection, schedule: Q04DX004 (ip), vehicle: saline with Tween-80 108 % of control | dose: 260.0 mg/kg/injection, schedule: Q04DX004 (ip), vehicle: saline with Tween-80 118 % of control

COc1cccc(Sc2ccc([N+](=O)[O-])c3no[n+]([O-])c23)c1
inactive: dose: 3.75 mg/kg/injection, schedule: Q04DX004 (ip), vehicle: saline with Tween-80 105 % of control | dose: 7.5 mg/kg/injection, schedule: Q04DX004 (ip), vehicle: saline with Tween-80 106 % of control | dose: 15.0 mg/kg/injection, schedule: Q04DX004 (ip), vehicle: saline with Tween-80 105 % of control | dose: 30.0 mg/kg/injection, schedule: Q04DX004 (ip), vehicle: saline with Tween-80 101 % of control | dose: 60.0 mg/kg/injection, schedule: Q04DX004 (ip), vehicle: saline with Tween-80 98 % of control

NCCSC(C[N+](=O)[O-])c1ccccc1Cl (centres undefined)
inactive: [1] 90 % of control and 100 % of control | [2] 92 % of control and 105 % of control | [3] 95 % of control and 98 % of control | dose: 100.0 mg/kg/injection, schedule: Q04DX004 (ip), vehicle: saline with Tween-80 109 % of control

NC(=O)c1c[nH]n(C2OC(CO)C(O)C2O)c1=O (centres undefined)
inactive: dose: 12.5 mg/kg/injection, schedule: Q04DX004 (ip), vehicle: saline 99 % of control | [4] 98 % of control | [5] 105 % of control | dose: 100.0 mg/kg/injection, schedule: Q04DX004 (ip), vehicle: saline 98 % of control | dose: 200.0 mg/kg/injection, schedule: Q04DX004 (ip), vehicle: saline 101 % of control

CCN(CC)CCn1[nH]c2c3ccc(=O)cc3sc3c(NCCN)ccc1c32
active: dose: 3.12 mg/kg/injection, schedule: Q04DX004 (ip), vehicle: water 194 % of control | [6] 155 % of control and 163 % of control and 200 % of control | [7] 178 % of control and 201 % of control and 239 % of control

O=NNc1cnccn1
active: [8] 150 % of control and 155 % of control | [9] 196 % of control
inactive: [6] 107 % of control | [7] 118 % of control and 123 % of control

N#CC1C(=O)NC(=S)NC1c1ccc(Cl)cc1 (centres undefined)
inactive: [10] 103 % of control | [11] 100 % of control

Nc1ccn(C2CC(N)C(CO)O2)c(=O)n1 (centres undefined)
active: dose: 800.0 mg/kg/injection, schedule: Q04DX004 (ip), vehicle: water 163 % of control
inactive: dose: 25.0 mg/kg/injection, schedule: Q04DX004 (ip), vehicle: water 109 % of control | [8] 118 % of control and 120 % of control | [9] 121 % of control and 124 % of control

O=[N+]([O-])c1ccc([I+]c2ccccc2)cc1
inactive: dose: 6.25 mg/kg/injection, schedule: Q04DX004 (ip), vehicle: Klucel (hydroxypropylcellulose) (HPC) 95 % of control | [12] 109 % of control | [13] 99 % of control | [10] 106 % of control

CN1CCc2c(c3ccccc3c3ccccc23)C1
inactive: [14] 114 % of control | [15] 122 % of control

CC(=O)NCCSSCc1ccccc1CS(=O)O
inactive: [16] 96 % of control | dose: 50.0 mg/kg/injection, schedule: Q04DX004 (ip), vehicle: suspension in saline 100 % of control | [17] 100 % of control | dose: 200.0 mg/kg/injection, schedule: Q04DX004 (ip), vehicle: suspension in saline 101 % of control | dose: 400.0 mg/kg/injection, schedule: Q04DX004 (ip), vehicle: suspension in saline 99 % of control

NC1=NCc2c(sc3c2CCCC3)N1
inactive: [12] 94 % of control | [13] 94 % of control | [10] 96 % of control | [11] 93 % of control

CC(C)NC(=O)OCc1c(COC(=O)NC(C)C)c(-c2ccc(Cl)c(Cl)c2)n2c1CCC2
inactive: dose: 180.0 mg/kg/injection, schedule: Q04DX004 (ip), vehicle: saline with Tween-80 114 % of control
active: [18] 161 % of control | dose: 108.0 mg/kg/injection, schedule: Q04DX004 (ip), vehicle: saline with Tween-80 188 % of control | [19] 186 % of control | [20] 152 % of control

Nc1nc(=O)nc2[nH]c3c4cccc5cccc(c3nc12)c54
inactive: [21] 101 % of control | [18] 95 % of control | [19] 98 % of control | dose: 300.0 mg/kg/injection, schedule: Q04DX004 (ip), vehicle: saline with Tween-80 90 % of control | [20] 94 % of control

CC(CN1CC(=O)NC(=O)C1)N1CC(=O)NC(=O)C1 (centres undefined)
inactive: dose: 25.0 mg/kg/injection, schedule: Q04DX005 (ip), vehicle: saline with Tween-80 118 % of control | dose: 50.0 mg/kg/injection, schedule: Q04DX005 (ip), vehicle: saline with Tween-80 103 % of control

C/C(=N\NC(=O)c1ccccc1O)c1cccc(/C(C)=N/NC(=O)c2ccccc2O)n1
inactive: [4] 88 % of control | [16] 108 % of control | [5] 88 % of control | [17] 116 % of control

c1ccc([Te][Te]c2ccccc2)cc1
inactive: dose: 18.75 mg/kg/injection, schedule: Q04DX004 (ip), vehicle: saline with Tween-80 106 % of control | [21] 100 % of control | [18] 98 % of control

O=C(N/N=C/c1ccc(O)cc1)c1ccc(OCc2nc3ccccc3[nH]2)cc1
inactive: [13] 96 % of control | [11] 93 % of control | dose: 400.0 mg/kg/injection, schedule: Q04DX004 (ip), vehicle: Klucel (hydroxypropylcellulose) (HPC) 92 % of control

C[C@H](N)C(=O)N[C@@H]1[C@H]2C(=C(O)C[C@@H](O)[C@@H]2O)C(=O)O[C@]1(C)C(Cl)Cl
active: dose: 2.16 mg/kg/injection, schedule: Q04DX004 (ip), vehicle: saline 159 % of control | dose: 3.6 mg/kg/injection, schedule: Q04DX004 (ip), vehicle: saline 179 % of control | dose: 6.0 mg/kg/injection, schedule: Q04DX004 (ip), vehicle: saline 152 % of control and 164 % of control | dose: 10.0 mg/kg/injection, schedule: Q04DX004 (ip), vehicle: saline 235 % of control

CC(=O)OCc1cc(-c2nc3ccccc3[nH]c2=O)nn1-c1ccc(Cl)cc1
inactive: dose: 6.25 mg/kg/injection, schedule: Q04DX004 (ip), vehicle: distilled water + alcohol 95 % of control | dose: 12.5 mg/kg/injection, schedule: Q04DX004 (ip), vehicle: distilled water + alcohol 91 % of control | dose: 25.0 mg/kg/injection, schedule: Q04DX004 (ip), vehicle: distilled water + alcohol 88 % of control and 91 % of control | dose: 200.0 mg/kg/injection, schedule: Q04DX004 (ip), vehicle: distilled water + alcohol 97 % of control

O=c1[nH]cnc2n[nH]nc12
inactive: [14] 104 % of control | [15] 94 % of control | dose: 300.0 mg/kg/injection, schedule: Q04DX004 (ip), vehicle: Klucel (hydroxypropylcellulose) (HPC) 97 % of control | dose: 600.0 mg/kg/injection, schedule: Q04DX004 (ip), vehicle: Klucel (hydroxypropylcellulose) (HPC) 95 % of control

NC(Cc1ccc[se]1)C(=O)O (centres undefined)
inactive: [1] 94 % of control | [2] 103 % of control | [3] 109 % of control
